Data set [1] concerns the target T1, human ETB receptor (Homo sapiens, UniProt P24530).
T1 construct: expressed in transfected cells; host or cells: CHO cells (membrane preparation)
T1 sequence (P24530 27-442): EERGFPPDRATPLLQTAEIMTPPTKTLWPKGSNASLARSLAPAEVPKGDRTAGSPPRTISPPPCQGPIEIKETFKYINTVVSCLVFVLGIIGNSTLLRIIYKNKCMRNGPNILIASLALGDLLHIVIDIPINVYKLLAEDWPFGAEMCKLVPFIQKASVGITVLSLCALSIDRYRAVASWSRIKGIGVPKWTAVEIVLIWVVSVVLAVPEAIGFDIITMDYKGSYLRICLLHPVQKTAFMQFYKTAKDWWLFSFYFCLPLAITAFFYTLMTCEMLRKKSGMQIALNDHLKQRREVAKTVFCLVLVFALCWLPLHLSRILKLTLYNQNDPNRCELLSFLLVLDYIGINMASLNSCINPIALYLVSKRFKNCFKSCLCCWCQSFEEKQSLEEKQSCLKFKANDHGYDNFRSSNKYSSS
In words: ETB receptor binding assay (125I-ET3, membranes of receptor-expressing CHO cells). Particulars: cloned human ETB receptor, CHO cell membranes, 25 pM 125I-ET3, 25° C., 30 min. The protocol:
(§1) Cloned human ETA or ETB receptor-expressing CHO cells were employed for binding studies.
(§2) The ETA or ETB receptor-expressing CHO cells were grown in DMEM NUT MIX F12 medium (Gibco, No. 21331-020) with 10% fetal calf serum (PAA Laboratories GmbH, Linz, No. A15-022), 1 mM glutamine (Gibco No. 25030-024), 100 U/ml penicillin and 100 μg/ml streptomycin (Gibco, Sigma No. P-0781). After 48 hours, the cells were washed with PBS and incubated with 0.05% trypsin-containing PBS at 37° C. for 5 minutes. Neutralization with medium was then carried out, and the cells were collected by centrifugation at 300×g.
(§3) For the membrane preparation, the cells were adjusted to a concentration of 10^8 cells/ml of buffer (50 mM tris.HCL buffer, pH 7.4) and then disintegrated by ultrasound (Branson Sonifier 250, 40-70 seconds/constant/output 20).
(§4) For the ETA and ETB receptor binding assays, the membranes were suspended in incubation buffer (50 mM tris-HCl, pH 7,4 with 5 mM MnCl2, 40 μg/ml bacitracin and 0.2% BSA) at a concentration of 50 μg of protein per assay mixture, and incubated with 25 pM ^125I-ET1 (ETA receptor assay) or 25 pM ^125I-ET3 (ETB receptor assay) in the presence and absence of test substance at 25° C. The nonspecific binding was determined with 10^−7 M ET1. Filtration was carried out after 30 min through GF/B glassfiber filters (Whatman, England) in a Skatron cell collector (Skatron, Lier, Norway) to separate free and bound radio ligands, and the filters were washed with ice-cold tris-HCl buffer, pH 7.4 with 0.2% BSA. The radioactivity collected on the filters was quantified using a
(§5) Packard 2200 CA liquid scintillation counter.

Data set [2] deals with T2, human ETA receptor (Homo sapiens, UniProt P25101).
T2 construct: expressed in transfected cells; host or cells: CHO cells (membrane preparation)
T2 sequence (P25101 21-427): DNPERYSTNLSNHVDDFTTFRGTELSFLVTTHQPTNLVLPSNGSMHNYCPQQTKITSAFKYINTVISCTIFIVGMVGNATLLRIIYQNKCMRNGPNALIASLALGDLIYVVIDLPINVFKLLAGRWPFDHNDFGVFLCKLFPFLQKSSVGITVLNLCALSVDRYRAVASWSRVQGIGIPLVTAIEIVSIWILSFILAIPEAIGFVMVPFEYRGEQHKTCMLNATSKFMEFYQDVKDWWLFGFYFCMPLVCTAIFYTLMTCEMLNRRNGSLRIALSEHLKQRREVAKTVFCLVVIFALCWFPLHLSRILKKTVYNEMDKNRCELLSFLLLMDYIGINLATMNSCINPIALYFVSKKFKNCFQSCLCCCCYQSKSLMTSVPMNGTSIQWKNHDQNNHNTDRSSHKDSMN
The data set can be described thus: ETA receptor binding assay (125I-ET1, membranes of receptor-expressing CHO cells). The settings on record: cloned human ETA receptor, CHO cell membranes, 25 pM 125I-ET1, 25° C., 30 min. The protocol: as §1, §2, §3, §4, §5

`COc1cc(C)nc(OC(C(=O)O)C(OCCc2ccc(OC)c(OC)c2)(c2ccccc2)c2ccccc2)n1` (stereo not drawn) [Compound I-482, 2-(4-Methoxy-6-methyl-2-pyrimidinyloxy)-3-(2-(3,4-dimethoxyphenyl)ethoxy)-3,3-diphenylpropionic Acid]: the Ki in data set [1] stood at 14 nM; in data set [2], 2 nM.

For the compound `Cc1cc(C)nc(OC(C(=O)O)C(OCCc2ccc(C(C)C)cc2)(c2ccccc2)c2ccccc2)n1` (stereo not drawn) [Compound I-672, 2-(4,6-Dimethyl-2-pyrimidinyloxy)-3-(2-(4-i-propylphenyl)ethoxy)-3,3-diphenylpropionic Acid], the results for the Ki in data set [1] and in data set [2] were 185 nM and 60 nM, respectively.

In the case of `COc1ccc(CCOC(c2ccccc2)(c2ccccc2)[C@H](Oc2nc(C)cc(C)n2)C(=O)O)cc1OC` [I-445 (S) enantiomer, (S)-2-(4,6-Dimethylpyrimidin-2-yloxy)-3-(2-(3,4-dimethoxyphenyl)ethoxy)-3,3-diphenylpropionic Acid], the values for the Ki in data set [1] and in data set [2] were 4.1 nM and 1.3 nM, respectively.

With `COc1ccc(CCOC(c2ccccc2)(c2ccccc2)C(Oc2nc(C)cc(C)n2)C(=O)O)cc1OC` (stereo not drawn) [Compound I-445], the melting point is 125 to 130 °C (dec.). This compound gave a Ki in data set [1] of 7.2 nM. Besides, the affinity in data set [2] corresponds to a Ki of 3.5 nM.

As for `Cc1cc(C)nc(OC(C(=O)O)C(OCCc2ccc(Cl)cc2)(c2ccccc2)c2ccccc2)n1` (stereo not drawn) [Compound I-713, 2-(4,6-Dimethyl-2-pyrimidinyloxy)-3-(2-(4-chlorophenyl)ethoxy)-3,3-diphenylpropionic Acid], the melting point was 108 °C (dec.). This compound had a Ki in data set [1] of 96 nM. In addition, the affinity in data set [2], expressed as Ki, was 20 nM.

`COc1nc(OC(C(=O)O)C(OCCc2ccc(C)cc2)(c2ccccc2)c2ccccc2)nc2c1CCO2` (stereo not drawn) [Compound I-370, 2-(4-Methoxy-5,6-dihydrofuro(2,3d)-2-pyrimidinyloxy)-3-(2-(4-methylphenyl)ethoxy)-3,3-diphenylpropionic Acid] registered a melting point of 128 to 130 °C. The compound also had a Ki in data set [1] of 54 nM. The compound further returned a Ki in data set [2] of 11 nM.

Regarding `COc1cc(CCOC(c2ccc(Cl)cc2)(c2ccc(Cl)cc2)C(Oc2nc(OC)c3c(n2)OCC3)C(=O)O)cc(OC)c1` (stereo not drawn) [Compound I-593, 2-(4-Methoxy-5,6-dihydrofuro(2,3d)-2-pyrimidinyloxy)-3-(2-(3,5-dimethoxyphenyl)ethoxy)-3,3-di(4-chlorophenyl)propionic Acid], the melting point is 90 to 100 °C. For the same compound, the Ki in data set [1] came out at 160 nM. This compound registered a Ki in data set [2] of 300 nM.

With `COc1cc(C)nc(OC(C(=O)O)C(OCCc2ccc(OC)c(OC)c2)(c2ccc(Cl)cc2)c2ccc(Cl)cc2)n1` (stereo not drawn) [Compound I-699, 2-(4-Methoxy-6-methyl-2-pyrimidinyloxy)-3-(2-(3,4-dimethoxyphenyl)ethoxy)-3,3-di(4-chlorophenyl)propionic Acid], the melting point lay within 100 to 110 °C. The Ki in data set [1] was determined as 130 nM. Also, the Ki in data set [2] is 230 nM.

For the compound `COc1ccc(CCOC(c2ccc(Cl)cc2)(c2ccc(Cl)cc2)C(Oc2nc(OC)c3c(n2)OCC3)C(=O)O)cc1OC` (stereo not drawn) [Compound I-635, 2-(4-Methoxy-5,6-dihydrofuro(2,3d)-2-pyrimidinyloxy)-3-(2-(3,4-dimethoxyphenyl)ethoxy)-3,3-di(4-chlorophenyl)propionic Acid], the melting point fell in the range of 100 to 110 °C. Affinity in data set [1] was put at a Ki of 126 nM. Moreover, the Ki in data set [2] came out at 210 nM.

On to `COc1cc(C)nc(OC(C(=O)O)C(OCCCc2ccccc2)(c2ccccc2)c2ccccc2)n1` (stereo not drawn) [Compound I-499, 2-(4-Methoxy-6-methyl-2-pyrimidinyloxy)-3-(3-phenylpropoxy)-3,3-diphenylpropionic Acid], for which the Ki was found to be 135 nM in data set [1] and 31 nM in data set [2].

As for `COc1ccc(CCOC(c2ccc(C)cc2)(c2ccc(C)cc2)C(Oc2nc(OC)c3c(n2)OCC3)C(=O)O)cc1` (stereo not drawn) [Compound I-355], the Ki in data set [1] worked out at 82 nM; in data set [2] it was 132 nM.

In the case of `COc1ccccc1CCOC(c1ccccc1)(c1ccccc1)C(Oc1nc(OC)c2c(n1)OCC2)C(=O)O` (stereo not drawn) [Compound I-140], the Ki in data set [1] amounted to 460 nM; in data set [2] it was 575 nM.

As to `COc1ccc(CCOC(c2ccccc2)(c2ccccc2)C(Oc2nc(C)cc(OC)n2)C(=O)O)cc1` (stereo not drawn) [Compound I-622, 2-(4-Methoxy-6-methyl-2-pyrimidinyloxy)-3-(2-(4-methoxyphenyl)ethoxy)-3,3-diphenylpropionic Acid], the Ki in data set [1] worked out at 23 nM; in data set [2], 3 nM.

For the compound `COc1ccc(CCOC(c2ccccc2)(c2ccccc2)C(Oc2nc(C)cc(C)n2)C(=O)O)cc1` (stereo not drawn) [Compound I-585, 2-(4,6-Dimethyl-2-pyrimidinyloxy)-3-(2-(4-methoxyphenyl)ethoxy)-3,3-diphenylpropionic Acid], the Ki amounted to 23 nM in data set [1] and 6 nM in data set [2].

`CCc1ccc(C(OCCc2ccc(OC)c(OC)c2)(c2ccc(CC)cc2)C(Oc2nc(C)cc(OC)n2)C(=O)O)cc1` (stereo not drawn) [Compound I-116, 2-(4-Methoxy-6-methyl-2-pyrimidinyloxy)-3-(2-(3,4-dimethoxyphenyl)ethoxy)-3,3-di(4-ethylphenyl)propionic Acid]: the Ki in data set [1] and in data set [2] was 35 nM each time.

Regarding `CCOc1ccc(CCOC(c2ccccc2)(c2ccccc2)C(Oc2nc(C)cc(C)n2)C(=O)O)cc1OC` (stereo not drawn) [Compound I-146, 2-(4,6-Dimethyl-2-pyrimidinyloxy)-3-(2-(4-ethoxy-3-methoxyphenyl)ethoxy)-3,3-diphenylpropionic Acid], the Ki in data set [1] is 29 nM; in data set [2], 4 nM.

Take `COc1cc(C)nc(OC(C(=O)O)C(OCCc2ccc(C)cc2)(c2ccccc2)c2ccccc2)n1` (stereo not drawn) [Compound I-465, 2-(4-Methoxy-6-methyl-2-pyrimidinyloxy)-3-(2-(4-methylphenyl)ethoxy)-3,3-diphenylpropionic Acid]: the melting point was 145 to 147 °C.

Regarding `COc1ccc(CCOC(c2ccccc2)(c2ccccc2)[C@@H](Oc2nc(C)cc(C)n2)C(=O)O)cc1OC` [I-445 (R) enantiomer], the Ki was found to be 140 nM in data set [1] and 65 nM in data set [2].

Turning to `COc1cc(C)nc(OC(C(=O)O)C(OCCc2ccccc2OC)(c2ccc(Cl)cc2)c2ccc(Cl)cc2)n1` (stereo not drawn) [Compound I-487, 2-(4-Methoxy-6-methyl-2-pyrimidinyloxy)-3-(2-(2-methoxyphenyl)ethoxy)-3,3-di(4-chlorophenyl)propionic Acid], the melting point is 85 to 90 °C.

As for `COc1cc(CCOC(c2ccccc2)(c2ccccc2)C(Oc2nc3c(c(OC)n2)CCC3)C(=O)O)cc(OC)c1` (stereo not drawn) [Compound I-321], the values for the Ki in data set [1] and in data set [2] were 290 nM and 340 nM, respectively.

The compound `COc1cc(C)nc(OC(C(=O)O)C(O/C=C/Cc2ccccc2)(c2ccccc2)c2ccccc2)n1` (stereo not drawn) [Compound I-44, 2-(4-Methoxy-6-methyl-2-pyrimidinyloxy)-3-(3-phenyl-(2E)-propenoxy)-3,3-diphenylpropionic Acid] registered a melting point of 171 to 174 °C.

The values above are taken from patent US6670367B1, “Azinyloxy, and phenoxy-diaryl-carboxylic acid derivatives, their preparation and use as mixed ETA/ETB endothelin receptor antagonists” (Abbott GmbH & Co., KG, priority 1996, dated 2003).
